Measured values as given in PubChem BioAssay AID1159561 (GlaxoSmithKline (GSK), 2015).
The source made the active and inactive calls.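 Rule for the calls: active = toxic to mouse fibroblast host cells, with IC50 below 50 µM; inactive = the rest.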

These molecules were tested on NIH-3T3 viability, ATP luminescence (assay: murine fibroblast viability via ATP level – cell-based, murine fibroblasts, cytotoxicity control for Trypanosoma cruzi inhibitor project (AID 1159561)). Conditions: 4 days.
With `O=C(CCCn1cnc([N+](=O)[O-])n1)Nc1cccc(Cl)c1` the IC50 was > 50 µM (inactive). `NC(=O)c1ccc(-c2cccc(OCCN3CCN(C4CCCCC4)CC3)c2)cc1` showed an IC50 of 16 µM. For `Clc1ccc(Sc2cnccc2N2CCOCC2)cc1`, the IC50 was > 50 µM (inactive). `CS(=O)(=O)c1cccc(-c2cnc(N)c3c(-c4ccc(CO)cc4)csc23)c1` showed an IC50 of 25 µM. With `CC(=O)Nc1ccc(-c2csc(NC(=O)c3ccc([N+](=O)[O-])s3)n2)cc1` the IC50 was 6.3 µM. Work on `O=C(Nc1ncc([N+](=O)[O-])s1)C1CC1` yielded an IC50 of 32 µM. In the case of `Cc1cccc(NS(=O)(=O)c2cnc3sc(C)cn3c2=O)c1`, the IC50 is reported as > 50 µM (inactive). `Cc1ccc(S(=O)(=O)Nc2ccc(CN3CCN(C(=O)c4cccc(C#N)c4)CC3)cc2)cc1` was tested, and the IC50 was > 50 µM (inactive). `N#Cc1c(Oc2cccc(Cl)c2)cccc1[N+](=O)[O-]` was tested, and the IC50 was 20 µM. Work on `O=C(NCCc1ccccc1Cl)c1cccn1-c1cccnc1` yielded an IC50 of 32 µM. `Cc1ccc(C)c(OC2CCN(C(=O)C(C)n3ccnc3)CC2)c1` (stereo not given) was tested, and the IC50 was > 50 µM (inactive). `O=C(c1cccc(Cl)c1Cl)N1CCn2c1nc(-c1ccncc1)cc2=O` was tested, and the IC50 was 20 µM. `COc1ccc2ncc(=O)n(CCN3CCOC(CNCc4ccc(C(F)(F)F)cc4F)C3)c2n1` (stereo not given) gave an IC50 of 4 µM. `COc1ccc2nccc([C@H](O)CN3CC[C@H](NC(=O)c4ccc(Br)cc4)[C@@H](O)C3)c2n1` was tested, and the IC50 was > 50 µM (inactive). `O=S(=O)(c1cccc(CSc2nnc(-c3ccc4c(c3)OCO4)o2)c1)N1CCOCC1` showed an IC50 of 16 µM. In the case of `CC(Cn1ccnc1)NC(=O)C=Cc1ccc(Cl)cc1` (stereo not given), the IC50 is reported as > 50 µM (inactive). `CS(=O)(=O)NC1CCC(Oc2cc3cnccc3cc2-c2ccsc2)CC1` (stereo not given) was tested, and the IC50 was 16 µM. In the case of `CN1CCCN(C(=O)c2ccc(N3CCCC3)cc2Cl)CC1`, the IC50 is reported as 25 µM. `CCOc1cnn(C)c(=O)c1Nc1ccc(C(=O)NCc2ccc(F)cc2)cc1` was tested, and the IC50 was > 50 µM (inactive). With `O=S(=O)(NCC(c1cccnc1)N1CCN(c2ccccc2F)CC1)c1ccc(F)cc1` (stereo not given) the IC50 was > 50 µM (inactive). Molecule `COc1ccc(-c2ccc3nnc(-c4ccc(O)c(OC)c4)n3c2)cn1` has an IC50 of 50 µM. `N#Cc1cc(N2CCCC2=O)ccc1Sc1ccccc1CO` was tested, and the IC50 was > 50 µM (inactive). `Cc1[nH]nc2c1C(c1ccc(OCc3ccccc3F)cc1)SCC(=O)N2` (stereo not given) was tested, and the IC50 was > 50 µM (inactive). In the case of `OCCCNc1nc(Nc2ccncc2)nc2ccccc12`, the IC50 is reported as > 50 µM (inactive). Molecule `c1cncc(CN(Cc2ccco2)Cc2cn[nH]c2-c2cccs2)c1` has an IC50 of 32 µM. For `CCC1Oc2cc(S(=O)(=O)N(C)CC(=O)N3CCc4ccccc4C3)c(C)cc2NC1=O` (stereo not given), the IC50 was > 50 µM (inactive). `COc1ccc(C(C)N(C)c2ncc3c(N)nc(N)nc3n2)cc1F` (stereo not given) showed an IC50 of 40 µM. For `c1ccc(CCNCc2cncc3nc(-c4cnccn4)n(C4CCCCC4)c23)cc1`, the IC50 was 6.3 µM. With `Cc1cccc(NS(=O)(=O)c2ccc3c(c2)C(=O)c2cc(S(=O)(=O)Nc4cccc(C)c4C)ccc2-3)c1C` the IC50 was > 50 µM (inactive). For `O=c1[nH]c(C=Cc2cccc(OCCOc3ccccc3)c2)nc(O)c1[N+](=O)[O-]`, the IC50 was > 50 µM (inactive). `Cc1[nH]c2ccccc2c(=O)c1Cc1c(C)[nH]c2ccccc2c1=O` was tested, and the IC50 was > 50 µM (inactive). `CN(Cc1ccc(F)cc1)c1ccc(OCC(=O)N2CCCCC2c2cccnc2)nn1` (stereo not given) showed an IC50 of 10 µM. In the case of `CCN(CC)S(=O)(=O)c1ccc(Cn2nc(C(=O)Nc3ccncn3)c3ccccc32)cc1`, the IC50 is reported as 40 µM. `Clc1ccc(CN2CCN(C3=NCCN3)CC2)cc1Cl` was tested, and the IC50 was 40 µM. `O=C(NCC1CCCCC1)c1cnns1` was tested, and the IC50 was > 50 µM (inactive). Molecule `O=C(c1ccc(OCCCc2cnc[nH]2)cc1)C1CC1` has an IC50 of 13 µM. Molecule `CCCCNc1nccc(-c2c(-c3ccc(F)cc3)nn3c(N4CCOCC4)cccc23)n1` has an IC50 of 10 µM. `CN(C)Cc1ccc(N2CCC(NS(=O)(=O)c3ccc(Cl)cc3)CC2)cc1` was tested, and the IC50 was 16 µM. Molecule `Cc1ccc2nc(N(Cc3cccnc3)C(=O)CCc3ccccc3)sc2c1` has an IC50 of 16 µM. Work on `COc1cccc(CCNC(=O)C(c2cn[nH]c2)N2CCN(c3ccc(Cl)cc3)CC2)c1` (stereo not given) yielded an IC50 of 32 µM. `CNc1cncc(C2CCCN2C(=O)Cc2coc3cc(C)ccc23)n1` (stereo not given) was tested, and the IC50 was > 50 µM (inactive). In the case of `Clc1ccc(C(CC2CCCCO2)Cn2cncn2)c(Cl)c1` (stereo not given), the IC50 is reported as 40 µM. `COc1ccc(-c2cc(C)no2)cc1S(=O)(=O)Nc1ccc(F)c(Cl)c1` was tested, and the IC50 was 25 µM. With `CCCN1CCN(Cc2ccc(S(=O)(=O)Nc3cccc(C)c3)cc2)CC1` the IC50 was 25 µM. With `CC(C)Nc1nccc(-c2c(-c3ccc(F)cc3)ncn2C2CCOCC2)n1` the IC50 was > 50 µM (inactive). `CCn1nccc1CN(C)C(=O)C=Cc1ccc(Cl)cc1` was tested, and the IC50 was > 50 µM (inactive). For `CC(C)(C)C(O)(CCc1ccc(Cl)cc1)Cn1cncn1` (stereo not given), the IC50 was > 50 µM (inactive). `CC(C(=O)Nc1ccccc1F)N(C)CC(=O)Nc1cccc2ccccc12` (stereo not given) showed an IC50 of 13 µM. Work on `CN(Cc1ccc(C(N)=O)cc1)C(c1ccc(F)cc1)c1cccnc1` (stereo not given) yielded an IC50 of 32 µM. For `COc1ccc(NS(=O)(=O)c2cccc(NC(=O)c3cc(F)cc(F)c3)c2)cc1`, the IC50 was 25 µM. `Cc1ccccc1OCC(=O)N1CCCN(c2cccnn2)CC1` showed an IC50 of 50 µM. For `O=C(Cn1cnc2cc([N+](=O)[O-])ccc2c1=O)NCCc1ccc(Cl)cc1Cl`, the IC50 was > 50 µM (inactive). With `Cc1c(C(=O)NCCCCn2ccnc2)oc2c(C)cccc12` the IC50 was 32 µM. In the case of `Cc1c([N+](=O)[O-])c(C(=O)Nc2sc3c(c2C#N)CCC(C)C3)nn1C` (stereo not given), the IC50 is reported as 13 µM. In the case of `CCN(CC)S(=O)(=O)c1ccc(C(=O)Nc2cc(C)nn2-c2nc(C)c(C)c(=O)[nH]2)cc1`, the IC50 is reported as > 50 µM (inactive). For `C=CCOCC1Cn2nc([N+](=O)[O-])nc2O1` (stereo not given), the IC50 was > 50 µM (inactive). For `CCC(=O)Nc1ccc(C(=O)Nc2ccccc2-c2ccccc2)cc1`, the IC50 was > 50 µM (inactive). For `CC(=Cc1ccccc1)CN1CCC(=O)N(Cc2cccnc2)CC1`, the IC50 was > 50 µM (inactive). Molecule `CN(Cc1cccnc1)Cc1ccc(N2CCN(C(=O)C3(c4ccc(Cl)cc4)CC3)CC2)nc1` has an IC50 of 7.9 µM. For `CCN(C)Cc1ccc(N2CCC(NS(=O)(=O)c3ccc4c(c3)CCO4)CC2)nc1`, the IC50 was 13 µM. `O=C(c1cnn(-c2ccccc2)n1)N1CCCC(n2ccnc2)C1` (stereo not given) was tested, and the IC50 was 20 µM. Work on `OC1CCC(Nc2nccc(-c3sc(C4CCOCC4)nc3-c3ccc(F)c(F)c3)n2)CC1` (stereo not given) yielded an IC50 of 40 µM. In the case of `CCCc1nc2nc(N)nc(N)c2cc1CC`, the IC50 is reported as 32 µM. In the case of `COc1cc(NC(=O)Nc2cccc(CNC(=O)OC3CCCCC3)c2)ccc1-c1cnco1`, the IC50 is reported as 10 µM. With `COc1ccc(C(C)(C)C)cc1S(=O)(=O)n1ccnc1` the IC50 was > 50 µM (inactive). `CC(C)Oc1ccc(C(=O)Nc2ccc(N3CCOCC3)c(Cl)c2)cc1` was tested, and the IC50 was 10 µM. For `COc1ccc(NS(=O)(=O)c2cc(-c3cc(C)[nH]n3)ccc2C)cc1OC`, the IC50 was > 50 µM (inactive). Work on `Cc1cc(C)nc(N2CCC(N(Cc3cccnc3)C(=O)c3cccc(C#N)c3)CC2)n1` yielded an IC50 of 7.9 µM. `CN(Cc1nc2ccccc2s1)C(=O)C=Cc1cc2ccccc2o1` was tested, and the IC50 was 32 µM. For `CNc1c(C(N)=O)c(-c2ccc3scnc3c2)nn1CC(F)(F)F`, the IC50 was 20 µM. With `Cc1ccc2ccc(C(Nc3ccccn3)c3cccnc3)c(O)c2n1` (stereo not given) the IC50 was 10 µM. `Cn1cc(CN2CCN(c3ccc4c(c3)CCN(C(=O)[C@H]3C[C@@H]3c3ccccc3)CC4)CC2)cn1` gave an IC50 of 20 µM. For `O=C(NCCc1nc(-c2ccc(F)c(F)c2)n[nH]1)C1CCCCC1`, the IC50 was > 50 µM (inactive). Molecule `N#Cc1nc(C=Cc2ccccc2)oc1NCc1cccnc1` has an IC50 of 13 µM. `O=C(NCC(c1cccnc1)N1CCc2ccccc2C1)C(=O)Nc1cccc(Cl)c1` (stereo not given) showed an IC50 of 25 µM. With `CN(C)CCOc1ccc(N2CCN(S(=O)(=O)c3ccc(Cl)cc3)CC2)cc1` the IC50 was 16 µM. In the case of `CC(Cn1ccnc1)NC(=O)COc1ccc(Cl)c(Cl)c1` (stereo not given), the IC50 is reported as > 50 µM (inactive). `Cc1cccc(N2CCCN(Cc3c[nH]c4ccccc34)CC2)n1` gave an IC50 of 25 µM. For `O=C(Nc1nc(-c2ccc(S(=O)(=O)N3CCOCC3)cc2)cs1)c1ccc([N+](=O)[O-])cc1`, the IC50 was 25 µM. In the case of `Cc1ccc2sc(NC(=O)Cn3cnc([N+](=O)[O-])n3)nc2c1`, the IC50 is reported as 50 µM. In the case of `O=C(Nc1ccc(Br)c(Cl)c1)Nc1ccc2c(c1)OCO2`, the IC50 is reported as 16 µM. With `CC(CNS(=O)(=O)c1ccc(OC(F)F)cc1)c1ccc(NC(=O)c2ccncc2)cc1` (stereo not given) the IC50 was > 50 µM (inactive). Molecule `Clc1ccc(OCCN2CCCCC2c2cccnc2)c(Cl)c1` (stereo not given) has an IC50 of 25 µM. For `Nc1ncnc2c1ncn2[C@@H]1O[C@H](CO)C[C@H]1O`, the IC50 was > 50 µM (inactive). With `Cn1nc([N+](=O)[O-])nc1Oc1ccc(C(=O)c2ccccc2)cc1` the IC50 was > 50 µM (inactive). In the case of `COc1cc(-c2nc(N3CCOCC3)sc2-c2ccnc(NC3CCOCC3)n2)ccc1Cl`, the IC50 is reported as > 50 µM (inactive). `FC(F)(F)c1cc(C2CCCN(Cc3c[nH]c4ccccc34)C2)nc2ncnn12` (stereo not given) was tested, and the IC50 was 20 µM. In the case of `CC(C)c1cc(C(=O)N2CCCC(c3cc4ncccc4[nH]3)C2)on1` (stereo not given), the IC50 is reported as 20 µM. `COc1ccc(NS(=O)(=O)c2cc(NC(=O)c3ccc([N+](=O)[O-])s3)ccc2OC)cc1` was tested, and the IC50 was > 50 µM (inactive). In the case of `O=C(NCC1CCCCC1)c1cc(=O)c2ccccc2o1`, the IC50 is reported as 32 µM. `O=S(=O)(c1ccccc1C(F)(F)F)N1CCN(Cc2ccc(-n3ccnc3)cc2)CC1` was tested, and the IC50 was > 50 µM (inactive). In the case of `CN(C)Cc1ccc(-c2ccc(S(=O)(=O)NCC3CCCO3)c(F)c2)cc1` (stereo not given), the IC50 is reported as 16 µM. `COc1ccc(C(=O)Nc2cc(C(F)(F)F)ccc2N2CCOCC2)c(OC)c1` was tested, and the IC50 was 32 µM. With `CN(Cc1nnnn1C1CCN(Cc2ccc(-n3ccnc3)cc2)CC1)c1ccc(F)cc1F` the IC50 was 25 µM. Molecule `O=[N+]([O-])c1ccc(C2=CC(c3ccccc3)=NCCN2)cc1` has an IC50 of 7.9 µM. For `Cc1ccc(NC(=O)c2ccc(Cl)c(NC(=O)c3ccc([N+](=O)[O-])cc3)c2)cc1`, the IC50 was 20 µM. With `Cc1cc2cncn2c(C2CCCCN2C(=O)c2cccs2)n1` (stereo not given) the IC50 was > 50 µM (inactive). `CC(C)(C)C(Cn1ccnc1)NC(=O)c1ccc2nc(C3CC3)oc2c1` (stereo not given) was tested, and the IC50 was > 50 µM (inactive). In the case of `O=C(Nc1ccc(Br)cn1)c1ccc(Cn2cnc([N+](=O)[O-])n2)cc1`, the IC50 is reported as > 50 µM (inactive). With `O=[N+]([O-])c1cccc(Nc2cncc(-c3ccccc3CO)c2)c1` the IC50 was 40 µM. `COc1ccc([N+](=O)[O-])cc1NC(=O)Nc1cccc(Cl)c1` was tested, and the IC50 was > 50 µM (inactive). Molecule `CN(C)c1ncc(-c2cncn2CCOc2ccc(Cl)cc2)cn1` has an IC50 of 40 µM. `Cc1cc2ncn(-c3ccc([N+](=O)[O-])cc3C#N)c2cc1C` was tested, and the IC50 was > 50 µM (inactive). Molecule `Cc1nccn1C1CCCN(C(=O)c2cc3c(F)cccc3s2)C1` (stereo not given) has an IC50 of 20 µM. For `O=C(NCc1nnc2n1CCCCC2)c1ccc(-c2ccc(F)cc2)o1`, the IC50 was > 50 µM (inactive).
